Columns and labels:
[1] = tested on: NCI-H322M; test: NCI60 one-dose screen (10 μM), Non-small Cell Lung Cancer; format: cell-based; conditions: Homo sapiens, 10 μM, Non-small Cell Lung Cancer, read-out: Growth percent rate
[2] = tested on: MDA-MB-435; test: NCI60 one-dose screen (10 μM), Melanoma; format: cell-based; conditions: Homo sapiens; 10 μM; MDA-MB-435, Melanoma; read-out: Growth percent rate
[3] = tested on: DU-145; test: NCI60 one-dose screen (10 μM), Prostate Cancer; format: cell-based; conditions: Homo sapiens; 10 μM; DU-145, Prostate Cancer; read-out: Growth percent rate
[4] = tested on: CCRF-CEM; test: NCI60 one-dose screen (10 μM), Leukemia; format: cell-based; conditions: Homo sapiens, 10 μM, Leukemia, read-out: Growth percent rate
[5] = tested on: RXF 393; test: NCI60 one-dose screen (10 μM), Renal Cancer; format: cell-based, human; conditions: Homo sapiens; 10 μM; RXF 393, Renal Cancer; read-out: Growth percent rate
[6] = tested on: NCI-H23; test: NCI60 one-dose screen (10 μM), Non-small Cell Lung Cancer; format: cell-based; conditions: Homo sapiens; 10 μM; NCI-H23, Non-small Cell Lung Cancer; read-out: Growth percent rate
[7] = tested on: SK-MEL-2; test: NCI60 one-dose screen (10 μM), Melanoma; format: cell-based; conditions: Homo sapiens; 10 μM; SK-MEL-2, Melanoma; read-out: Growth percent rate
[8] = tested on: MCF7; test: NCI60 one-dose screen (10 μM), Breast Cancer; format: cell-based; conditions: Homo sapiens; 10 μM; MCF7, Breast Cancer; read-out: Growth percent rate
[9] = tested on: IGROV1; test: NCI60 one-dose screen (10 μM), Ovarian Cancer; format: cell-based; conditions: Homo sapiens, IGROV-1; 10 μM; IGROV1, Ovarian Cancer; read-out: Growth percent rate
[10] = tested on: OVCAR-8; test: NCI60 one-dose screen (10 μM), Ovarian Cancer; format: cell-based; conditions: Homo sapiens; 10 μM; OVCAR-8, Ovarian Cancer; read-out: Growth percent rate
[11] = tested on: SF-295; test: NCI60 one-dose screen (10 μM), CNS Cancer; format: cell-based; conditions: Homo sapiens; 10 μM; SF-295, CNS Cancer; read-out: Growth percent rate
[12] = tested on: ACHN; test: NCI60 one-dose screen (10 μM), Renal Cancer; format: cell-based; conditions: Homo sapiens, 10 μM, Renal Cancer, read-out: Growth percent rate
[13] = tested on: CAKI-1; test: NCI60 one-dose screen (10 μM), Renal Cancer; format: cell-based; conditions: Homo sapiens; 10 μM; CAKI-1, Renal Cancer; read-out: Growth percent rate
[14] = tested on: SK-MEL-5; test: NCI60 one-dose screen (10 μM), Melanoma; format: cell-based, human; conditions: Homo sapiens; 10 μM; SK-MEL-5, Melanoma; read-out: Growth percent rate
[15] = tested on: HCC-2998; test: NCI60 one-dose screen (10 μM), Colon Cancer; format: cell-based; conditions: Homo sapiens; 10 μM; HCC-2998, Colon Cancer; read-out: Growth percent rate
[16] = tested on: HCT-15; test: NCI60 one-dose screen (10 μM), Colon Cancer; format: cell-based; conditions: Homo sapiens; 10 μM; HCT-15, Colon Cancer; read-out: Growth percent rate
[17] = tested on: SF-268; test: NCI60 one-dose screen (10 μM), CNS Cancer; format: cell-based; conditions: Homo sapiens; 10 μM; SF-268, CNS Cancer; read-out: Growth percent rate
[18] = tested on: A549/ATCC; test: NCI60 one-dose screen (10 μM), Non-small Cell Lung Cancer; format: cell-based; conditions: Homo sapiens; 10 μM; A549/ATCC, Non-small Cell Lung Cancer; read-out: Growth percent rate
[19] = tested on: NCI-H460; test: as above; format: cell-based; conditions: Homo sapiens; 10 μM; NCI-H460, Non-small Cell Lung Cancer; read-out: Growth percent rate
[20] = tested on: OVCAR-4; test: NCI60 one-dose screen (10 μM), Ovarian Cancer; format: cell-based; conditions: Homo sapiens; 10 μM; OVCAR-4, Ovarian Cancer; read-out: Growth percent rate
[21] = tested on: SF-539; test: NCI60 one-dose screen (10 μM), CNS Cancer; format: cell-based, human; conditions: Homo sapiens; 10 μM; SF-539, CNS Cancer; read-out: Growth percent rate
[22] = tested on: MOLT-4; test: NCI60 one-dose screen (10 μM), Leukemia; format: cell-based, human; conditions: Homo sapiens; 10 μM; MOLT-4, Leukemia; read-out: Growth percent rate
[23] = tested on: 60 human tumor cell lines (NCI60); test: NCI60 one-dose screen (10 μM), whole panel; format: cell-based; conditions: for antiproliferative effect (in words): 10 μM one-dose, NCI60; for activity at 10 µM: mean over 60 human cancer cell lines, read-out: Growth percent rate, Mean
[24] = tested on: 786–0; test: NCI60 one-dose screen (10 μM), Renal Cancer; format: cell-based; conditions: Homo sapiens; 10 μM; 786-0, Renal Cancer; read-out: Growth percent rate
[25] = tested on: HL-60(TB); test: NCI60 one-dose screen (10 μM), Leukemia; format: cell-based; conditions: Homo sapiens; 10 μM; HL-60(TB), Leukemia; read-out: Growth percent rate
[26] = tested on: NCI-H522; test: NCI60 one-dose screen (10 μM), Non-small Cell Lung Cancer; format: cell-based; conditions: Homo sapiens; 10 μM; NCI-H522, Non-small Cell Lung Cancer; read-out: Growth percent rate
[27] = tested on: M14; test: NCI60 one-dose screen (10 μM), Melanoma; format: cell-based; conditions: Homo sapiens; 10 μM; M14, Melanoma; read-out: Growth percent rate
[28] = tested on: MALME-3M; test: NCI60 one-dose screen (10 μM), Melanoma; format: cell-based; conditions: Homo sapiens; 10 μM; MALME-3M, Melanoma; read-out: Growth percent rate
[29] = tested on: SW-620; test: NCI60 one-dose screen (10 μM), Colon Cancer; format: cell-based; conditions: Homo sapiens; 10 μM; SW-620, Colon Cancer; read-out: Growth percent rate
[30] = tested on: KM12; test: NCI60 one-dose screen (10 μM), Colon Cancer; format: cell-based, human; conditions: Homo sapiens; 10 μM; KM12, Colon Cancer; read-out: Growth percent rate
[31] = tested on: SK-MEL-28; test: NCI60 one-dose screen (10 μM), Melanoma; format: cell-based; conditions: Homo sapiens; 10 μM; SK-MEL-28, Melanoma; read-out: Growth percent rate
[32] = tested on: SNB-19; test: NCI60 one-dose screen (10 μM), CNS Cancer; format: cell-based; conditions: Homo sapiens; 10 μM; SNB-19, CNS Cancer; read-out: Growth percent rate
[33] = tested on: SNB-75; test: NCI60 one-dose screen (10 μM), CNS Cancer; format: cell-based, human; conditions: Homo sapiens; 10 μM; SNB-75, CNS Cancer; read-out: Growth percent rate
[34] = tested on: OVCAR-3; test: NCI60 one-dose screen (10 μM), Ovarian Cancer; format: cell-based; conditions: Homo sapiens; 10 μM; OVCAR-3, Ovarian Cancer; read-out: Growth percent rate
[35] = tested on: COLO 205; test: NCI60 one-dose screen (10 μM), Colon Cancer; format: cell-based, human; conditions: Homo sapiens; 10 μM; COLO 205, Colon Cancer; read-out: Growth percent rate
[36] = tested on: SN12C; test: NCI60 one-dose screen (10 μM), Renal Cancer; format: cell-based; conditions: Homo sapiens, 10 μM, Renal Cancer, read-out: Growth percent rate
[37] = tested on: UACC-257; test: NCI60 one-dose screen (10 μM), Melanoma; format: cell-based; conditions: Homo sapiens; 10 μM; UACC-257, Melanoma; read-out: Growth percent rate
[38] = tested on: K-562; test: NCI60 one-dose screen (10 μM), Leukemia; format: cell-based; conditions: Homo sapiens, K562; 10 μM; K-562, Leukemia; read-out: Growth percent rate
[39] = tested on: HT29; test: NCI60 one-dose screen (10 μM), Colon Cancer; format: cell-based; conditions: Homo sapiens, HT-29; 10 μM; HT29, Colon Cancer; read-out: Growth percent rate
[40] = tested on: LOX IMVI; test: NCI60 one-dose screen (10 μM), Melanoma; format: cell-based, human; conditions: Homo sapiens; 10 μM; LOX IMVI, Melanoma; read-out: Growth percent rate
[41] = tested on: HCT-116; test: NCI60 one-dose screen (10 μM), Colon Cancer; format: cell-based; conditions: Homo sapiens; 10 μM; HCT-116, Colon Cancer; read-out: Growth percent rate
[42] = tested on: EKVX; test: NCI60 one-dose screen (10 μM), Non-small Cell Lung Cancer; format: cell-based; conditions: Homo sapiens, 10 μM, Non-small Cell Lung Cancer, read-out: Growth percent rate

CCC12C=CCN3CCC4(c5cc(NC(=O)CCl)c(OC)cc5N(C)C4C(O)(C(=O)OC)C1OC(C)=O)C32 (centres unmarked) [Compound 12, 10-chloroacetamidovindoline]
activity at 10 µM [1]: 58.9% | activity at 10 µM [2]: 39.9% | activity at 10 µM [3]: 43.9% | activity at 10 µM [4]: 12.6% | activity at 10 µM [5]: -32.6% | activity at 10 µM [6]: -4.42% | activity at 10 µM [7]: -69.6% | activity at 10 µM [8]: 2.74% | activity at 10 µM [9]: 27.5% | activity at 10 µM [10]: 29.6% | activity at 10 µM [11]: 52.2% | activity at 10 µM [12]: 37.3% | activity at 10 µM [13]: 43.8% | activity at 10 µM [14]: -17.6% | activity at 10 µM [15]: 24.2% | activity at 10 µM [16]: 50.1% | activity at 10 µM [17]: -0.99% | activity at 10 µM [18]: 64% | activity at 10 µM [19]: 51% | activity at 10 µM [20]: -17.1% | activity at 10 µM [21]: 4.74% | activity at 10 µM [22]: -26.9% | antiproliferative effect (in words) [23]: moderate cytostatic activity | activity at 10 µM [23]: 18.1% | activity at 10 µM [24]: 21.3% | activity at 10 µM [25]: 37.9% | activity at 10 µM [26]: 8.28% | activity at 10 µM [27]: 37% | activity at 10 µM [28]: -14.1% | activity at 10 µM [29]: 64.5% | activity at 10 µM [30]: 41.5% | activity at 10 µM [31]: -0.03% | activity at 10 µM [32]: 23.1% | activity at 10 µM [33]: -8.81% | activity at 10 µM [34]: -14.7% | activity at 10 µM [35]: 87.2% | activity at 10 µM [36]: 11% | activity at 10 µM [37]: -3.69% | activity at 10 µM [38]: 36.4% | activity at 10 µM [39]: 54.1% | activity at 10 µM [40]: 11.5% | activity at 10 µM [41]: 41.2% | activity at 10 µM [42]: 46.6%

CCC12C=CCN3CCC4(c5cc(NC(=O)CN6CCN(C(c7ccc(F)cc7)c7ccc(F)cc7)CC6)c(OC)cc5N(C)C4C(O)(C(=O)OC)C1OC(C)=O)C32 (centres unmarked) [Compound 20]
activity at 10 µM [1]: 42.8% | activity at 10 µM [2]: 22.2% | activity at 10 µM [3]: 37.1% | activity at 10 µM [4]: -18.9% | activity at 10 µM [5]: -44% | activity at 10 µM [6]: 38% | activity at 10 µM [7]: -34.7% | activity at 10 µM [8]: 5.47% | activity at 10 µM [9]: 44.9% | activity at 10 µM [10]: 45.6% | activity at 10 µM [11]: 13.8% | activity at 10 µM [12]: 11.4% | activity at 10 µM [13]: 27.7% | activity at 10 µM [14]: -76.2% | activity at 10 µM [15]: 3.93% | activity at 10 µM [16]: 18.3% | activity at 10 µM [17]: 28.1% | activity at 10 µM [18]: 31% | activity at 10 µM [19]: 17.3% | activity at 10 µM [20]: 31.4% | activity at 10 µM [21]: -61.1% | activity at 10 µM [22]: 1.17% | antiproliferative effect (in words) [23]: moderate antiproliferative activity on some colon, CNS, and melanoma cell lines | activity at 10 µM [23]: 12.2% | activity at 10 µM [24]: 34% | activity at 10 µM [25]: -10.8% | activity at 10 µM [26]: 11% | activity at 10 µM [27]: 49.7% | activity at 10 µM [28]: 0% | activity at 10 µM [29]: 34.2% | activity at 10 µM [30]: 20.2% | activity at 10 µM [31]: 51.2% | activity at 10 µM [32]: 21.5% | activity at 10 µM [33]: -60.5% | activity at 10 µM [34]: 36.5% | activity at 10 µM [35]: -60.5% | activity at 10 µM [36]: 26.9% | activity at 10 µM [37]: 37.9% | activity at 10 µM [38]: 17% | activity at 10 µM [39]: -40.8% | activity at 10 µM [40]: -61% | activity at 10 µM [41]: 27.9% | activity at 10 µM [42]: 16.2%

From paper PMC11277489, “Novel Piperazine Derivatives of Vindoline as Anticancer Agents” (International Journal of Molecular Sciences, 2024)
